The text below walks through data of US8673906B2, “Chromenone derivatives” (AstraZeneca AB, priority 2010, dated 2014).

Molecules are shown by their SMILES.

One may read the IC50 as the midpoint of a concentration-inhibition curve.

Chain of PI3Kβ (P42338 whole entry): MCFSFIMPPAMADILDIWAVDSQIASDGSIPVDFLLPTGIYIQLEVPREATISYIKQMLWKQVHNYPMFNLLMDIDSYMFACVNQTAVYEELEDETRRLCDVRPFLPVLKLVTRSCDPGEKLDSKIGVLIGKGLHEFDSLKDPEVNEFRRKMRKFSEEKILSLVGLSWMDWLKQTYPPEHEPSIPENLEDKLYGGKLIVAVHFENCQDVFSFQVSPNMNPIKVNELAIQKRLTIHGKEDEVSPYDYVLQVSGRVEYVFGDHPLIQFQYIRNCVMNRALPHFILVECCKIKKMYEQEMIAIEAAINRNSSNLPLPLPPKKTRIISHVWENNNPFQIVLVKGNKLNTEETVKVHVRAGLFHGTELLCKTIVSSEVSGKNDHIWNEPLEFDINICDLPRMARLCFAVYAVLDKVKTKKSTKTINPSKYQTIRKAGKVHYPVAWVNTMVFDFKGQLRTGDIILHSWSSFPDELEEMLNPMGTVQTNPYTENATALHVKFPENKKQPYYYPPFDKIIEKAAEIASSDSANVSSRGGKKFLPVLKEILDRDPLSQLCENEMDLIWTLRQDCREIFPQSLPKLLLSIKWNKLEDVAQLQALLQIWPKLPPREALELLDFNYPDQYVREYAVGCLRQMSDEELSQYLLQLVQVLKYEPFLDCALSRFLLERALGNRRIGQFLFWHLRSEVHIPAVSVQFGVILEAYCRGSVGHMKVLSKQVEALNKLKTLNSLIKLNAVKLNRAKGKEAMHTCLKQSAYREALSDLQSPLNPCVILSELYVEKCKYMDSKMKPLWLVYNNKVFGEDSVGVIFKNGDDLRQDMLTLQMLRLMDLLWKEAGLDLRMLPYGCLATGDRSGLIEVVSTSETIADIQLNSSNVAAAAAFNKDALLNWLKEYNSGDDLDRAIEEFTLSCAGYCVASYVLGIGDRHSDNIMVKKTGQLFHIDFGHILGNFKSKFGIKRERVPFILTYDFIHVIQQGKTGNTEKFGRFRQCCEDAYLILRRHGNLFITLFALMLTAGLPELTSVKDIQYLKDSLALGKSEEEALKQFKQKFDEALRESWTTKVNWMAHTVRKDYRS
Chain of PI3Kβ (P27986 whole entry partner): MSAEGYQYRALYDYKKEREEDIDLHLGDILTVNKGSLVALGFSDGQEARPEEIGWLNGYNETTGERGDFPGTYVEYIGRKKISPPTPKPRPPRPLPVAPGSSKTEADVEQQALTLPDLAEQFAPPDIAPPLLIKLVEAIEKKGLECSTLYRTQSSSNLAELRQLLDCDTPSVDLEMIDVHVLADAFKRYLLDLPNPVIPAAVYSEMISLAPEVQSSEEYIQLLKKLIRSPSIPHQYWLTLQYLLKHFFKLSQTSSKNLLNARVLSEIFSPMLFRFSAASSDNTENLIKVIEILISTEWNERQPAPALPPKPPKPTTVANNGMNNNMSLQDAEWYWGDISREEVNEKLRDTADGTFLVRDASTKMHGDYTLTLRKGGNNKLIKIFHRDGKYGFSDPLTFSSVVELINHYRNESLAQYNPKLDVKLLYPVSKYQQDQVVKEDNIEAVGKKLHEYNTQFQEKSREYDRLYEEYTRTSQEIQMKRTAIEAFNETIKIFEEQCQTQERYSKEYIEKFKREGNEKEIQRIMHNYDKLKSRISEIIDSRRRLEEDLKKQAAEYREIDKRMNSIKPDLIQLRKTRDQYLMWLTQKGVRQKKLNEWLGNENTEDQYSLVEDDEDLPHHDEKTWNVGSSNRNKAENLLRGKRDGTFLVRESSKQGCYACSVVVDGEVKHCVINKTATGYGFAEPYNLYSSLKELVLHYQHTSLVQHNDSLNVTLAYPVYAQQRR

The first test concerns the target PI3Kβ (Homo sapiens (Human), UniProt P42338). The test can be described thus: In vitro enzyme inhibition assay (Kinase Glo based enzyme activity assay). Type of test: biochemical. The settings on record: Test (a), human recombinant enzyme; read-out: PI3Kβ inhibition, IC50. Here is the method: (a) In Vitro Enzyme Inhibition Assay
The inhibition of PI3Kβ, PI3Kα, PI3Kγ and PI3Kδ was evaluated in a Kinase Glo based enzyme activity assay using human recombinant enzymes. The assay measures depletion of ATP after incubation with enzyme, PIP2 and ATP plus compound. ATP at the end of the reaction is detected by addition of Kinase Glo reagent, in this the Ultra Glo™ luciferase (Promega) uses the ATP as a substrate to catalyze the mono-oxygenation of luciferin and the generation of light. A direct relationship exists between the luminescence measured with the Kinase-Glo Plus Reagent and the amount of ATP remaining in a completed kinase reaction and luminescence is inversely related to kinase activity. Twelve different compound concentrations were tested and raw data from the inhibition of PI3 Kb, PI3Kα, PI3Kγ and PI3Kδ was plotted versus inhibitor concentration.
Compounds in 100% DMSO were added to assay plates by acoustic dispensing. PI3Kβ was added in a Tris buffer (50 mM Tris pH7.4, 0.05% CHAPS, 2.1 mM DTT, and 10 mM MgCl2) and allowed to preincubate with compound for 20 minutes prior to addition of substrate solution containing PIP2 and ATP. The enzyme reaction was stopped after 80 minutes by the addition of Kinase Glo detection solution. Plates were left for 30 minutes at room temperature then read on a Pherastar Instrument (Luminescence ATP 384 program) setting gain on max well. The final concentration of DMSO, ATP and PIP2 in the assay were, 1%, 80 μM, and 80 μM respectively.
IC50 values were calculated using a log curve fitting to a non-linear regression package, fitting raw data to inhibitor concentration.
On to `CC(c1cc(C(=O)N2CCC(O)CC2)cc2c(=O)cc(N3CCOCC3)oc12)N(C)c1cc(F)cc(F)c1` (single isomer, unassigned) [Example 7.01a, 8-(1-((3,5-difluorophenyl)(methyl)amino)ethyl)-6-(4-hydroxypiperidine-1-carbonyl)-2-morpholino-4H-chromen-4-one], for which the IC50 was determined as 8 nM.
Still for that read-out and setting: for `CC(Nc1cccc(Cl)c1Cl)c1cc(C(=O)N(C)C)cc2c(=O)cc(N3CCOCC3)oc12` (stereo not drawn) [Example 3.19, 8-(1-(2,3-dichlorophenylamino)ethyl)-N,N-dimethyl-2-morpholino-4-oxo-4H-chromene-6-carboxamide] the value was 5 nM.
Same read-out and setting: as for `Cc1cc(C#N)cc(NC(C)c2cc(C(=O)N(C)C)cc3c(=O)cc(N4CCOCC4)oc23)c1` (stereo not drawn) [Example 3.23, 8-(1-(3-cyano-5-methylphenylamino)ethyl)-N,N-dimethyl-2-morpholino-4-oxo-4H-chromene-6-carboxamide], the figure is 13 nM; as for `CC(Nc1cc(F)cc(F)c1)c1cc(C(=O)N(C)C)cc2c(=O)cc(N3CCO[C@H](C)C3)oc12` (stereo partly drawn) [Example 9.01, 8-(1-(3,5-difluorophenylamino)ethyl)-N,N-dimethyl-2-((R)-2-methylmorpholino)-4-oxo-4H-chromene-6-carboxamide], 4 nM; as for `CC(Nc1cc(F)cc(F)c1)c1cc(C(=O)N(C)C)cc2c(=O)cc(N3CCO[C@H](C)C3)oc12` (single isomer, unassigned) [Example 9.01a], 17900 nM.
Consider `C#Cc1cccc(NC(C)c2cc(C(=O)N(C)C)cc3c(=O)cc(N4CCOCC4)oc23)c1` (stereo not drawn) [Example 3.20, 8-(1-(3-ethynylphenylamino)ethyl)-N,N-dimethyl-2-morpholino-4-oxo-4H-chromene-6-carboxamide], for which the IC50 stood at 5 nM.
Turning to `CC(Nc1ccc(F)cc1)c1cc(C(=O)N(C)C)cc2c(=O)cc(N3CCO[C@H](C)C3)oc12` (stereo partly drawn) [Example 9.0, 8-(1-(4-fluorophenylamino)ethyl)-N,N-dimethyl-2-((R)-2-methylmorpholino)-4-oxo-4H-chromene-6-carboxamide], the IC50 amounted to 5 nM.
Same read-out and setting: for `Cc1ccc(Cl)cc1NC(C)c1cc(C(=O)N(C)C)cc2c(=O)cc(N3CCOCC3)oc12` (stereo not drawn) [Example 3.28, 8-(1-(5-chloro-2-methylphenylamino)ethyl)-N,N-dimethyl-2-morpholino-4-oxo-4H-chromene-6-carboxamide] the value was 4 nM; for `Cc1ccc(C#N)cc1NC(C)c1cc(C(=O)N(C)C)cc2c(=O)cc(N3CCOCC3)oc12` (stereo not drawn) [Example 3.21, 8-(1-(5-cyano-2-methylphenylamino)ethyl)-N,N-dimethyl-2-morpholino-4-oxo-4H-chromene-6-carboxamide], 114 nM; for `CC(Nc1cccc(F)c1C#N)c1cc(C(=O)N(C)C)cc2c(=O)cc(N3CCOCC3)oc12` (stereo not drawn) [Example 3.36, 8-(1-(2-cyano-3-fluorophenylamino)ethyl)-N,N-dimethyl-2-morpholino-4-oxo-4H-chromene-6-carboxamide], 24 nM.
The same measure, in the same setting: for `CC(c1cc(C(=O)N(C)C)cc2c(=O)cc(N3CCOCC3)oc12)N(C)c1cc(F)cc(F)c1F` (stereo not drawn) [Example 3.39, N,N-dimethyl-8-(1-(methyl(2,3,5-trifluorophenyl)amino)ethyl)-2-morpholino-4-oxo-4H-chromene-6-carboxamide] the value was 21 nM; for `CC(Nc1cc(F)cc(F)c1)c1cc(C(=O)N2CCC[C@H]2CO)cc2c(=O)cc(N3CCOCC3)oc12` (stereo partly drawn) [Example 4.21, 8-(1-(3,5-difluorophenylamino)ethyl)-6-((S)-2-(hydroxymethyl)pyrrolidine-1-carbonyl)-2-morpholino-4H-chromen-4-one], 4 nM.
Same read-out and setting: as for `CC(c1cc(C(=O)N2CCC(O)CC2)cc2c(=O)cc(N3CCOCC3)oc12)N(C)c1cc(F)cc(F)c1` (single isomer, unassigned) [Example 7.01b, 8-(1-((3,5-difluorophenyl)(methyl)amino)ethyl)-6-(4-hydroxypiperidine-1-carbonyl)-2-morpholino-4H-chromen-4-one], the figure is 4320 nM; as for `CC(Nc1ccc(F)cc1)c1cc(C(=O)N(C)C)cc2c(=O)cc(N3CCOCC3)oc12` (stereo not drawn) [Example 2.01, 8-(1-(4-fluorophenylamino)ethyl)-N,N-dimethyl-2-morpholino-4-oxo-4H-chromene-6-carboxamide], 7 nM.
Turning to `CC(Nc1cc(F)cc(F)c1)c1cc(C(=O)NCC2CC2)cc2c(=O)cc(N3CCOCC3)oc12` (stereo not drawn) [Example 4.23, N-(cyclopropylmethyl)-8-(1-(3,5-difluorophenylamino)ethyl)-2-morpholino-4-oxo-4H-chromene-6-carboxamide], the IC50 turned out to be 3 nM.
The same measure, in the same setting: as for `CC(Nc1cc(F)cc(F)c1)c1cc(C(=O)NCCO)cc2c(=O)cc(N3CCOCC3)oc12` (stereo not drawn) [Example 4.14, 8-(1-(3,5-difluorophenylamino)ethyl)-N-(2-hydroxyethyl)-2-morpholino-4-oxo-4H-chromene-6-carboxamide], the figure is 4 nM.
Consider `C#Cc1cc(F)cc(NC(C)c2cc(C(=O)N(C)C)cc3c(=O)cc(N4CCOCC4)oc23)c1` (stereo not drawn) [Example 3.34, 8-(1-(3-ethynyl-5-fluorophenylamino)ethyl)-N,N-dimethyl-2-morpholino-4-oxo-4H-chromene-6-carboxamide], for which the 50% inhibitory concentration (IC50) was determined as 4 nM.
For the molecule `CC(Nc1cccc(F)c1F)c1cc(C(=O)N(C)C)cc2c(=O)cc(N3CCOCC3)oc12` (stereo not drawn) [Example 3.10, 8-(1-(2,3-difluorophenylamino)ethyl)-N,N-dimethyl-2-morpholino-4-oxo-4H-chromene-6-carboxamide], the IC50 was determined as 4 nM.
As to `COC1CCN(C(=O)c2cc(C(C)Nc3cc(F)cc(F)c3)c3oc(N4CCOCC4)cc(=O)c3c2)CC1` (stereo not drawn) [Example 4.26, 8-(1-(3,5-difluorophenylamino)ethyl)-6-(4-methoxypiperidine-1-carbonyl)-2-morpholino-4H-chromen-4-one], the concentration for half-maximal inhibition (IC50) amounted to 4 nM.
The same measure, in the same setting: as for `CC(Nc1ccc(F)c(Cl)c1)c1cc(C(=O)N(C)C)cc2c(=O)cc(N3CCOCC3)oc12` (stereo not drawn) [Example 3.05, 8-(1-(3-chloro-4-fluorophenylamino)ethyl)-N,N-dimethyl-2-morpholino-4-oxo-4H-chromene-6-carboxamide], the figure is 6 nM.
`CC(Nc1cc(F)cc(F)c1)c1cc(C(=O)N2CCC(O)CC2)cc2c(=O)cc(N3CCOCC3)oc12` (stereo not drawn) [Example 4.09, 8-(1-(3,5-difluorophenylamino)ethyl)-6-(4-hydroxypiperidine-1-carbonyl)-2-morpholino-4H-chromen-4-one]: the IC50 was found to be 3 nM.
As to `CC(Nc1cc(F)cc(F)c1)c1cc(C(=O)N2CC(O)C2)cc2c(=O)cc(N3CCOCC3)oc12` (stereo not drawn) [Example 4.12, 8-(1-(3,5-difluorophenylamino)ethyl)-6-(3-hydroxyazetidine-1-carbonyl)-2-morpholino-4H-chromen-4-one], the IC50 worked out at 4 nM.
Still for that read-out and setting: for `CC(Nc1cc(F)cc(F)c1F)c1cc(C(=O)N(C)C)cc2c(=O)cc(N3CCOCC3)oc12` (stereo not drawn) [Example 3.13, N,N-dimethyl-2-morpholino-4-oxo-8-(1-(2,3,5-trifluorophenylamino)ethyl)-4H-chromene-6-carboxamide] the value was 6 nM.
Regarding `CC(c1cc(C(=O)N2CCCC2)cc2c(=O)cc(N3CCOCC3)oc12)N(C)c1cc(F)cc(F)c1` (stereo not drawn) [Example 6.0, 8-(1-((3,5-difluorophenyl)(methyl)amino)ethyl)-2-morpholino-6-(pyrrolidine-1-carbonyl)-4H-chromen-4-one], the IC50 came to 5 nM.
The same measure, in the same setting: as for `CC(c1cc(C(=O)NCCN(C)C)cc2c(=O)cc(N3CCOCC3)oc12)N(C)c1ccc(F)cc1` (stereo not drawn) [Example 3.00, N-(2-(dimethylamino)ethyl)-8-(1-((4-fluorophenyl)(methyl)amino)ethyl)-2-morpholino-4-oxo-4H-chromene-6-carboxamide], the figure is 7 nM.
The same measure, in the same setting: as for `COCCCNC(=O)c1cc(C(C)Nc2cc(F)cc(F)c2)c2oc(N3CCOCC3)cc(=O)c2c1` (stereo not drawn) [Example 4.19, 8-(1-(3,5-difluorophenylamino)ethyl)-N-(3-methoxypropyl)-2-morpholino-4-oxo-4H-chromene-6-carboxamide], the figure is 23 nM.
On the same count and under the same terms, as for `CC(Nc1cc(F)cc(F)c1)c1cc(C(=O)N2CCOCC2)cc2c(=O)cc(N3CCOCC3)oc12` (stereo not drawn) [Example 2.07, 8-(1-(3,5-difluorophenylamino)ethyl)-6-(morpholine-4-carbonyl)-2-morpholino-4H-chromen-4-one], the figure is 5 nM.
As for `CC(Nc1cc(F)cc(F)c1)c1cc(C(=O)N(C)C)cc2c(=O)cc(N3CCO[C@@H](C)C3)oc12` (single isomer, unassigned) [Example 9.02a], the IC50 was 22700 nM.
Take `CC(Nc1cc(F)cc(F)c1)c1cc(C(=O)N2CCNCC2)cc2c(=O)cc(N3CCOCC3)oc12` (stereo not drawn) [Example 4.04, 8-(1-(3,5-difluorophenylamino)ethyl)-2-morpholino-6-(piperazine-1-carbonyl)-4H-chromen-4-one]: the IC50 stood at 4 nM.

Still in this test, the particulars now being: mean IC50 value calculated from a larger number of replicates; read-out: PI3Kβ inhibition, IC50 (value in brackets).
For the molecule `CC(Nc1cccc(F)c1)c1cc(C(=O)N(C)C)cc2c(=O)cc(N3CCOCC3)oc12` (stereo not drawn) [Example 3.12, 8-(1-(3-fluorophenylamino)ethyl)-N,N-dimethyl-2-morpholino-4-oxo-4H-chromene-6-carboxamide], the IC50 was 5 nM.
